Legend:
[1] = target: T1, angiotensin converter enzyme (ACE) (Rattus norvegicus, UniProt P47820); assay: Plasmatic ACE activity, fluorimetric method with Hip-His-Leu substrate; format: biochemical, Wistar rats; conditions: 5 mM enalaprilate, assay specificity control
T1 construct: from tissue; host or cells: plasma of Wistar rats
T1 sequence (P47820 36-1238 limits assumed): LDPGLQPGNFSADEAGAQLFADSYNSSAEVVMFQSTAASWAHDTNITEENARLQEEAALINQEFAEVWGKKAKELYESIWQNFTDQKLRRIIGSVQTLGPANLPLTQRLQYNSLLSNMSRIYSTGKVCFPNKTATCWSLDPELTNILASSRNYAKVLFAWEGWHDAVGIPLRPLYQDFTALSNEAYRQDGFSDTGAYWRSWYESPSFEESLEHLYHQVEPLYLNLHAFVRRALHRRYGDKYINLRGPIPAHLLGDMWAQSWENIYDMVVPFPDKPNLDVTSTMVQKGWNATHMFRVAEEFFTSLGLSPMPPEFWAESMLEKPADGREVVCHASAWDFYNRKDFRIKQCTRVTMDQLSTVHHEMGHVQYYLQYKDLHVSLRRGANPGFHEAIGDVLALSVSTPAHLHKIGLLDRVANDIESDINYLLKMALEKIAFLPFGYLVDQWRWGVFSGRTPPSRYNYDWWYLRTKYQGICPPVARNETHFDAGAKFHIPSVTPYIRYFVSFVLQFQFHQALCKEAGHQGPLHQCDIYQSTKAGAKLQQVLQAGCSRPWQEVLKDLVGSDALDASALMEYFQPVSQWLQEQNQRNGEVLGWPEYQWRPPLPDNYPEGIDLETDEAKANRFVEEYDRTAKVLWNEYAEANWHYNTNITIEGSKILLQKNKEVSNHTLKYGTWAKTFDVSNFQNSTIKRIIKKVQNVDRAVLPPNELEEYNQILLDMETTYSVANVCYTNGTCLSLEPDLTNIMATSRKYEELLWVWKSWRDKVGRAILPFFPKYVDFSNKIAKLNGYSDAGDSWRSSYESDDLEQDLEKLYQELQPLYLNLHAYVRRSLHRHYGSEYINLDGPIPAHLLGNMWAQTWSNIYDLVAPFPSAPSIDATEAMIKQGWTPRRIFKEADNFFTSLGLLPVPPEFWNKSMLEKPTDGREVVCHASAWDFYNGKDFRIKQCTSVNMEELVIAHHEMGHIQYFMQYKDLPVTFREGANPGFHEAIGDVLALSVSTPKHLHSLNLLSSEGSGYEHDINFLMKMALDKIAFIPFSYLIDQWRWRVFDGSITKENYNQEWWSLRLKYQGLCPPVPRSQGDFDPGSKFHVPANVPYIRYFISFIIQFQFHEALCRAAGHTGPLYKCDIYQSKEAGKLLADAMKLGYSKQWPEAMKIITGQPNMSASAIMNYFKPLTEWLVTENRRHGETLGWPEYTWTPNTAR
Description: The plasmatic activity of ACE was measured by the fluorimetric method using Hip-His-Leu as substrate, as previously described (Santos, R. A. S. et al., Hypertension, 7:244-52, (1985)). Plasma aliquots (10 μL) of Wistar rats were incubated with a […] solution containing a 1 mM substrate (Hip-His-Leu) and 0.4 M of sodium borate, 0.9 M NaCl (pH=8.3) for 15 minutes at 37° C. The reaction was halted by adding 1.2 mL of NaOH at 0.34 M and […] of orthoftaldehyde (20 mg/mL in methanol). After 10 minutes at environment temperature, […] of HCl at 3 N was added. Later on, after a 5-minute 800×g centrifugation, the floating solution fluorescence was measured (a 365 nm excitation and a 495 nm emission). The blank was prepared by inverting the addition order of plasma and NaOH. A 0.5 to 20 nmol curve, containing the product (His-Leu) resulting of the substrate break (Hip-His-Leu) by ACE plasmatic activity, was prepared in each assay. In order to test the inhibition effect of ACE by the PEPTIDEs Ang-(1-7) and Ala^1-Ang-(1-7), 3.3×10^−7 or 3.3×10^−6 M of each PEPTIDE was added before the plasma addition. […] The percentage of enzymatic activity inhibition was estimated in function of the maximum activity obtained.

[2] = target: T2, AT1 receptor (Homo sapiens, UniProt P30556); conditions: Jankowski et al. 2007; cited from earlier work
T2 sequence (P30556 1-359): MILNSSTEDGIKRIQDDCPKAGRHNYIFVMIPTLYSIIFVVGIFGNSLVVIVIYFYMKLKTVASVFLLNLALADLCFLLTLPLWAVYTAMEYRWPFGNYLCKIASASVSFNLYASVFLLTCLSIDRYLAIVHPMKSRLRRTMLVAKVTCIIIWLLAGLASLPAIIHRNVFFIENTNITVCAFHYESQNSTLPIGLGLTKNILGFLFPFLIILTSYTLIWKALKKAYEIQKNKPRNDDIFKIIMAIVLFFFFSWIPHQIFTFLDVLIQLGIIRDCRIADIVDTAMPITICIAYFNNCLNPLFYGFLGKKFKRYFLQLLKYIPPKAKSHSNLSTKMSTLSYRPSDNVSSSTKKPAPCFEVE

[3] = target: T3, AT2 receptor (Homo sapiens, UniProt P50052); conditions: Jankowski et al. 2007; cited from earlier work
T3 sequence (P50052 1-363): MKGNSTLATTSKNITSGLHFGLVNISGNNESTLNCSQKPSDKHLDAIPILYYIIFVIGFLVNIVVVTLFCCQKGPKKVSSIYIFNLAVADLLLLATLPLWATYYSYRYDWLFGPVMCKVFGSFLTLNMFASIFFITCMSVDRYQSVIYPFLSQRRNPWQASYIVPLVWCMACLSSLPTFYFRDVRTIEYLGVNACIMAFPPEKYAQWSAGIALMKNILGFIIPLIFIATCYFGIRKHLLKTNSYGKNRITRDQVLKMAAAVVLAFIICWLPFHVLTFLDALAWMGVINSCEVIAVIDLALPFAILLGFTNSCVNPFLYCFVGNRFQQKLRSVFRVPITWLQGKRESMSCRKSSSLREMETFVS

[4] = tested on: wild-type mice; conditions: Jankowski et al. 2007; cited from earlier work
[5] = target: Mas receptor; conditions: Dong et al., Cell 2001; read-out: EC50, affinity with Mas receptor; cited from earlier work

With `C[C@H](N[C@@H](CCc1ccccc1)C(=O)O)C(=O)N1CCC[C@H]1C(=O)O` [enalaprilate] the “inhibition of the ACE activity” value [1] was 98%.
In the case of “Ala^1-Arg^2-Val^3-Tyr^4-Ile^5-His^6-Pro^7-Phe^8 (ARVYIHPF; Angiotensin-2; UniProt P01019 25-32, looked up, variant D1A) [Ala^1-Ang II]”, the “affinity with AT1 receptor compared with Ang II” value [2] is listed as “does not substantially differ from Ang II”, the “affinity with AT2 receptor compared with Ang II” value [3] is listed as “does not substantially differ from Ang II” and the “pressor activity compared with Ang II” value [4] is listed as “only a fraction of the Ang II activity”.
In the case of “NPFF: one PEPTIDE called NPFF, which had shown affinity with the Mas receptor, though reasonably feeble”, the EC50 [5] is given as roughly 400 nM.
